Laboratory results taken from US20250340519A1, “RADIOLABELLED COMPOUND” (OXFORD UNIVERSITY INNOVATION LIMITED, priority 2018, published 2025).
Several values for one entry are separate records, joined by “and”; a condition that tells them apart may be missing. Identical values can stand only once.

How the values were obtained:
Panc-1 xenograft = test: Ex vivo biodistribution in Panc-1 xenograft bearing mice
Experimental: Animals were housed in IVC cages in sex-matched groups up to 5 per cage, in an artificial day-night cycle facility, with ad libitum access to food and water. […] CaNT xenografts were generated by harvesting CaNT tumours from donor animals, and injecting a tumour homogenate subcutaneously in the flank of wild type CBA/Carl mice. Tumours were irradiated (10 Gy, 2 Gy/min) using a 300 kV X-ray device.
(§1) Biodistribution studies, where selected tissues were harvested, were performed 1 h post injection. Some animals were also administered an excess of cold, unlabelled olaparib for evaluating the specificity of tumour uptake. EF5, a hypoxia-selective marker, was injected 2 h before culling of the animal. Digital autoradiography was performed on tumour sections. Image analysis was performed using PMOD.
Cells were harvested using trypsin, washed twice using PBS, and reconstituted in DMEM. […] Tumour volumes (V) were calculated after calliper measurement using the following equation: V=(a^2×b)/2, where a is the width of the tumour and b the length (small and large diameters, respectively). The individual relative tumour volume (RTV) was defined as Vt/Vo, where Vt is the volume at a given time and Vo at the start of treatment. Animals were entered in in vivo studies when their tumour was at least 200 mm^3.
Two hours prior to PET/CT imaging, animals were exposed to X-irradiation of the tumour (10 Gy or sham) (see schedule in FIG. 13). Radiation was delivered using a Gulmay 320 kV X-irradiator; 2.0 Gy/min. […] Naïve CBA/Carl mice, not bearing tumours, were not irradiated, nor was EF5 administered.
Dynamic PET/CT images were acquired using a VECTor ^4CT integrated PET/CT system. Mice were anaesthetised by 4% isoflurane gas (0.5 L/min O2) and placed on a custom-built imaging cradle in a prone position.
After PET/CT image acquisition, animals were euthanized by cervical dislocation and selected organs, tissues and blood were removed. […] Counts per minute were converted into MBq using a calibration curve generated from known standards. Values were decay-corrected to the time of injection, and the percentage of the injected dose per gram (% ID/g) of each tissue was calculated.

[1] = Ex vivo biodistribution in naïve CBA/Carl mice; details: 1 h p.i., individual animals
Experimental: as §1, with “Dynamic PET/CT images were acquired following an intravenous bolus administration of [^18F]-olaparib. Biodistribution” for “Biodistribution”
Dynamic PET/CT images were acquired using a VECTor ^4CT integrated PET/CT system. Mice were anaesthetised by 4% isoflurane gas (0.5 L/min O2) and placed on a custom-built imaging cradle in a prone position. Animals mice were intravenously injected with [^18F]-olaparib or (3-5 MBq, 8-11 GBq/μmol, through a tail vein catheter, and dynamic imaging was performed over 45-60 min after radiolabelled compound administration. PET acquisition (150 s per frame, using list mode acquisition) using an ultra-high resolution rat/mouse 1.8 mm collimator, followed by a cone-beam CT scan (55 kV, 0.19 mA) for anatomical reference and attenuation correction. Anaesthesia was maintained at 2.5% isoflurane throughout the duration of the image acquisition. PET images were reconstructed using U-SPECT-Rec3.22 software (MILabs, Utrecht, The Netherlands), applying a pixel-based algorithm with 8 subsets, 6 iterations and 0.8 mm voxel size for ^18F (energy window settings 477.9-584.1 keV).
After PET/CT image acquisition, animals were euthanized by cervical dislocation and selected organs, tissues and blood were removed. The amount of radioactivity in each organ was measured using a 2480 WIZARD^2 gamma counter (PerkinElmer). Counts per minute were converted into MBq using a calibration curve generated from known standards. Values were decay-corrected to the time of injection, and the percentage of the injected dose per gram (% ID/g) of each tissue was calculated.

## O=C(c1cc(Cc2n[nH]c(=O)c3ccccc23)ccc1[18F])N1CCN(C(=O)C2CC2)CC1 [[^18F]olaparib]
Panc-1 xenograft; PANC-1 xenografts, 1 h after i.v. bolus, tracer alone
  tumour uptake (group mean): 3.16±0.36 % ID/g
Panc-1 xenograft; PANC-1 xenografts, 2 h after 10 Gy vs non-irradiated
  increase of tumour uptake after irradiation: 70%
Panc-1 xenograft; PANC-1 xenografts, 2 h after irradiation (10 Gy)
  tumour uptake (group mean): 5.35±1.16 % ID/g
Panc-1 xenograft; PANC-1 xenografts, co-injection of excess cold olaparib
  tumour uptake (group mean): 1.20±0.17 % ID/g
Panc-1 xenograft; Panc-1 xenograft mice, + IR (10 Gy), 1 h p.i., individual animals
  Ex vivo biodistribution Small intestine: 65.1 % ID/g and 113 % ID/g and 95.2 % ID/g
[1]
  Ex vivo biodistribution Blood: 0.11 % ID/g (2×) and 0.14 % ID/g
  Ex vivo biodistribution Fat: 0.05 % ID/g and 0.03 % ID/g and 0.26 % ID/g
  Ex vivo biodistribution Heart: 0.19 % ID/g and 0.17 % ID/g and 0.34 % ID/g
  Ex vivo biodistribution Kidney: 0.59 % ID/g and 0.60 % ID/g and 1.01 % ID/g
  Ex vivo biodistribution Large intestine: 0.92 % ID/g and 1.64 % ID/g and 2.99 % ID/g
  Ex vivo biodistribution Liver: 2.55 % ID/g and 4.02 % ID/g and 5.27 % ID/g
  Ex vivo biodistribution Lung: 0.29 % ID/g and 0.19 % ID/g and 0.34 % ID/g
  Ex vivo biodistribution Muscle: 0.20 % ID/g and 0.14 % ID/g and 0.34 % ID/g
  Ex vivo biodistribution Pancreas: 0.91 % ID/g and 0.70 % ID/g and 1.30 % ID/g
  Ex vivo biodistribution Skin: 0.16 % ID/g and 0.10 % ID/g and 0.27 % ID/g
  Ex vivo biodistribution Small intestine: 7.75 % ID/g and 10.33 % ID/g and 17.40 % ID/g
  Ex vivo biodistribution Spleen: 2.09 % ID/g and 1.91 % ID/g and 3.68 % ID/g
  Ex vivo biodistribution Stomach: 0.46 % ID/g and 0.26 % ID/g and 0.58 % ID/g
